Experimental data: PubChem BioAssay (NCI)
Several values for one entry are separate records, joined by “and”; a condition that tells them apart may be missing. Equal values may be shown once.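 Five compound concentrations were applied to cells in 96-well plates for 48 hours; endpoints were derived by simple linear interpolation of the resulting dose-response curve. GI50 marks 50% less growth. TGI: concentration producing complete growth inhibition.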

Key:
Assay in all cases: NCI tumour cell line growth inhibition, 48 h
NCI-H460 lung = test system: NCI-H460 lung
M14 melanoma = test system: M14 melanoma
A498 renal = test system: A498 renal
CAKI-1 renal = test system: CAKI-1 renal
SK-OV-3 ovarian = test system: SK-OV-3 ovarian
SK-MEL-28 melanoma = test system: SK-MEL-28 melanoma
OVCAR-4 ovarian = test system: OVCAR-4 ovarian
KM12 colon = test system: KM12 colon
OVCAR-3 ovarian = test system: OVCAR-3 ovarian
UACC-257 melanoma = test system: UACC-257 melanoma

| SMILES | TGI (NCI-H460 lung) [µM] | TGI (M14 melanoma) [µM] | TGI (A498 renal) [µM] | TGI (CAKI-1 renal) [µM] | TGI (SK-OV-3 ovarian) [µM] | TGI (SK-MEL-28 melanoma) [µM] | GI50 (NCI-H460 lung) [µM] | GI50 (OVCAR-4 ovarian) [µM] | TGI (OVCAR-4 ovarian) | GI50 (M14 melanoma) [µM] | GI50 (KM12 colon) [µM] | TGI (KM12 colon) | GI50 (A498 renal) [µM] | GI50 (OVCAR-3 ovarian) [µM] | TGI (OVCAR-3 ovarian) [µM] | GI50 (UACC-257 melanoma) | TGI (UACC-257 melanoma) | GI50 (CAKI-1 renal) | GI50 (SK-MEL-28 melanoma) [µM] | GI50 (SK-OV-3 ovarian) [µM] |
| --- | --- | --- | --- | --- | --- | --- | --- | --- | --- | --- | --- | --- | --- | --- | --- | --- | --- | --- | --- | --- |
| C[C@@H](C1CCC2C3C(=CC(=O)[C@@]21C)[C@H](C)[C@]1(CCC(=O)O1)C1OC31)[C@H]1C[C@]2(C)O[C@@](C)(O1)OC2(C)C (some centres not stated) | > 100 | > 100 | > 100 | > 100 | > 100 | > 100 | – | – | – | – | – | – | – | – | – | – | – | – | – | – |
| COc1ccc(-c2nn(-c3ccc(NC(=O)c4ccc(Cl)c(C(F)(F)F)c4)cc3)cc2-c2ccncc2)cc1Cl | > 100 | 3.08 | 4.47 | 2.08 | – | > 100 | 0.441 | 2.48 | > 100 µM | 0.471 | 0.514 | > 100 µM | 0.237 | 1.99 | > 100 | 4.68 µM | > 94.9 µM | 0.335 µM | 2.85 | – |
| O=C(c1ccccc1)C(c1ccccc1)C1(O)C(=O)Nc2ccccc21 (configuration not stated) | > 100 | > 100 | > 100 | > 100 | > 100 | > 100 | – | – | > 100 µM | – | – | – | – | – | > 100 | – | > 100 µM | – | – | – |
| C/C=C(\C)c1cc(=O)c2c(C)cc3c(c2o1)C(=O)c1c(O)c(C2CC(C)(N(C)C)C(O)C(C)O2)cc(C2CC(N(C)C)C(O)C(C)O2)c1C3=O (configuration not stated) | – | 0.312 | 0.453 | 5.99 | – | – | – | – | 3.64 µM and 11.2 µM | – | – | 2.42 µM and > 23 µM | – | – | – | 0.505 µM and 2.59 µM | 1.9 µM and 8.55 µM | 0.273 µM and 2.08 µM | – | – |
| COc1ccc(C(C#N)NC23CC4CC(CC(C4)C2)C3)cc1OC (configuration not stated) | > 100 | > 100 | – | > 100 | > 100 | > 100 | – | – | > 100 µM | – | – | > 100 µM | – | – | > 100 | – | > 100 µM | – | – | – |
| O=C(/C=C/C12c3ccccc3C(c3ccccc31)C1C(=O)N(c3ccccc3)C(=O)C12)c1ccc(Cl)cc1 (configuration not stated) | 3.7 | 6.78 | 2.44 | 3.52 | > 100 | 5.11 | 1.64 | – | – | 2.14 | 2.18 | > 100 µM | 1.16 | – | – | 2.13 µM | 5.5 µM | 1.02 µM | 1.98 | 5.28 |
| COc1ccc2c(c1)[C@]1(C[C@H]1c1ccc3c(/C=C/c4ccc(CN5C[C@@H](C)O[C@@H](C)C5)cc4)n[nH]c3c1)C(=O)N2 | 12.1 | 20.6 | 30.6 | – | > 100 | 38.1 | 1.6 | 2.65 | > 100 µM | 3.25 | 0.0143 | > 73.6 µM | 2.34 | 4.19 | 18.5 | 6.8 µM | > 60.5 µM | – | 6.2 | 15.1 |
| CC(N=C(N)N)C(=O)O (configuration not stated) | – | > 100 | > 100 | > 100 | > 100 | > 100 | – | – | > 100 µM | – | – | > 100 µM | – | – | > 100 | – | > 100 µM | – | – | – |
| COc1cc2c(c(OC)c1OC)C(=O)CC(c1cccc(NC(=O)c3ccc(Br)cc3)c1)O2 (configuration not stated) | > 100 | 7.49 | 8.15 | > 100 | > 100 | > 100 | 3.27 | 1.6 | > 100 µM | 2.08 | – | – | 1.55 | – | – | 2.96 µM | 9.04 µM | 2.25 µM | 2.98 | 4.32 |
| CC(C)(C)N/N=C(\Cc1occc(=O)c1O)C(=O)Nc1ccc([N+](=O)[O-])cc1[N+](=O)[O-] | > 100 | > 100 | > 100 | > 100 | > 100 | > 100 | – | – | > 100 µM | – | – | > 100 µM | – | – | – | – | > 100 µM | – | – | – |
| COc1cc(=O)oc(/C=C/C=O)c1C | – | 33.8 | > 100 | 79.9 | 75.9 | 26.6 | – | – | 32.5 µM | – | – | 38.2 µM | – | – | 33.4 | – | 35.4 µM | – | – | – |
| O=C1c2ccccc2C(=O)C2C1C1C(=O)c3ccccc3C(=O)C21 (configuration not stated) | > 100 | > 100 | – | > 100 | > 100 | > 100 | – | – | > 100 µM | – | – | > 100 µM | – | – | > 100 | – | > 100 µM | – | – | – |
| O=S(=O)(Nc1cc(Br)c(O)c2ccccc12)c1ccc(F)cc1 | 38.7 | 6.12 | 33.3 | 20.5 | 35.9 | 5.39 | 18.3 | – | – | 2.42 | 6.27 | 21.7 µM | 17.3 | 2.56 | 6.4 | 1.87 µM | 3.58 µM | 7.7 µM | 2.46 | 14.7 |
| O=[N+]([O-])c1cc([N+](=O)[O-])c(Cl)c(Cl)c1Cl | 4.99 | – | 17.9 | – | 18.4 | 3.06 | 2.16 | 1.78 | 3.16 µM | – | 1.85 | 3.76 µM | 5.2 | 1.18 | 2.4 | 1.43 µM | 2.83 µM | – | 1.67 | 5.84 |
| O=C(Cn1c(=O)c(-c2ccccc2)nc2ccccc21)c1ccc(Cl)cc1 | > 100 | > 100 | – | > 100 | > 100 | > 100 | 75.6 | 33.4 | > 100 µM | > 100 | 98.1 | > 100 µM | – | 46.6 | > 100 | > 100 µM | > 100 µM | 67.5 µM | 42.5 | 46.4 |
| COC(=O)[C@H]1[C@H]2C[C@@H]3c4[nH]c5cc(OC)ccc5c4CCN3C[C@H]2C[C@@H](OC(=O)c2cc(OC)c(OC)c(OC)c2)[C@@H]1OC | 59.9 | 30.3 | – | 36 | – | – | – | – | 27.8 µM | – | – | 41.7 µM | – | – | 32.9 | – | 42.1 µM | – | – | – |
| O=C(CC(=O)c1ccc([N+](=O)[O-])cc1)C(=O)Nc1nccs1 | > 100 | > 100 | – | > 100 | > 100 | > 100 | – | – | > 100 µM | – | – | > 100 µM | – | – | > 100 | – | – | – | – | – |
| CCCN(CCCN)/[N+]([O-])=N\O | > 100 | > 100 | – | > 100 | > 100 | > 100 | – | – | > 100 µM | – | – | > 100 µM | – | – | > 100 | – | > 100 µM | – | – | – |
